Here are results for 16 molecules from paper PMC9460261, “Need for a Standardized Translational Drug Development Platform: Lessons Learned from the Repurposing of Drugs for COVID-19” (Microorganisms, 2022).

Structures can show the parent of a compound that is named as a salt. Where two headings read alike, the source gives them in different places.

Data set [1] deals with SARS-CoV-2. To be noted: cited from earlier work; for EC50: read-out: SARS-CoV-2 EC50.
Data set [2] deals with SARS-CoV-2 in Vero cells. Briefly: microbe, parasite or virus in culture. To be noted: Severe acute respiratory syndrome coronavirus 2, Vero.
For data set [3], the system named is SARS-CoV-2 in Vero cells. To be noted: for IC50: * one replicate only.
Data set [4] deals with SARS-CoV-2 in Calu-3 cells. Briefly: microbe, parasite or virus in culture. To be noted: Severe acute respiratory syndrome coronavirus 2, Calu-3, read-out: Calu-3 cells Average IC50.
The subject of data set [5] is SARS-CoV-2. The format is in vivo, Syrian hamster. To be noted: doses, frequency, duration as in Table 1.
The subject of data set [6] is SARS-CoV-2 in Calu-3 cells. To be noted: for IC50: read-out: Calu-3 cells Average IC50, * one replicate only.
The nature of data set [7]: Population PK model from satellite PK studies in hamster.
The nature of the next data set: in vitro. To be noted: African green monkey, Selectivity Index (Vero cells).
The conditions of data set [8]: female, LGV Golden Syrian, hamster, in vivo.
Setting [9] is: read-out: VERO cells Average IC50, With Pgp pump inhibitor, 2 μM CP-100356, * one replicate only.
Where [10] appears, read: read-out: VERO cells Average IC50, Without Pgp pump inhibitor, * one replicate only.
The mark [11] stands for this setting: read-out: VERO cells Average IC50, Without Pgp pump inhibitor.
Where [12] appears, read: hamster of the study's median weight (80-131 g).
The mark [13] stands for this setting: read-out: VERO cells Average IC50, With Pgp pump inhibitor, 2 μM CP-100356.

As for `Cc1c(-c2ccc(-c3ccccc3F)cc2)nc2ccc(F)cc2c1C(=O)O` [Brequinar, brequinar], the EC50 is 0.05 µM in the data set with SARS-CoV-2 [1] (host cell A549-ACE); more than 50 µM with SARS-CoV-2 [1] (host cell Caco-2); 0.5 µM in the data set on SARS-CoV-2 [1] (host cell Huh7.5); 0.12 µM in the data set on SARS-CoV-2 [1] (host cell Vero E6, ref 51).

Consider `CN(Cc1cc(Br)cc(Br)c1N)C1CCCCC1` [Bromhexine, bromhexine], for which, in the data set with SARS-CoV-2 [1] (host cell Vero E6, ref 47), the EC50 was 21.7 µM.

As for `CN(C)C(=O)COC(=O)Cc1ccc(OC(=O)c2ccc(NC(=N)N)cc2)cc1` [Camostat mesylate, camostat mesylate], the values for the half-maximal inhibitory concentration (IC50) (with SARS-CoV-2 in Vero cells [2] (setting [9]); in the data set on SARS-CoV-2 in Vero cells [2] (setting [10]); in [4]) were more than 50 µM, more than 50 µM and 3 µM, respectively. In addition, in the data set on SARS-CoV-2 in Vero cells [3], the “Activity In Vitro; Potency EC50 or IC50 < 10 µM; Vero Cells” value (“Activity In Vitro … Vero Cells” for short) is “No (Potency EC50 or IC50 < 10 µM)”. Also, the EC50 in the data set on SARS-CoV-2 [1] (host cell Calu-3) was 0.083 µM. For the same molecule, the “Activity in SARS-CoV-2 Hamster Model” value with SARS-CoV-2 [5] is given as “No”. The “Activity In Vitro; Potency EC50 or IC50 < 10 µM; Calu-3 Cells” value (shortened to “Activity In Vitro … Calu-3 Cells”) in data set [6] is “Yes (Potency EC50 or IC50 < 10 µM)”.

With `COc1cc2c(c(OC)c1OC)-c1ccc(OC)c(=O)cc1[C@@H](NC(C)=O)CC2` [Colchicine, colchicine], the IC50 in the data set on SARS-CoV-2 in Vero cells [2] (read-out: VERO cells Average IC50, With Pgp pump inhibitor) was determined as 3.7 µM; in the data set with SARS-CoV-2 in Vero cells [2] (setting [11]), 8.4 µM. In the data set on SARS-CoV-2 in Vero cells [3], the “Activity In Vitro … Vero Cells” value is “Yes (Potency EC50 or IC50 < 10 µM)”. For the same molecule, the “Activity In Vitro … Calu-3 Cells” value in data set [6] is on record as “Yes (Potency EC50 or IC50 < 10 µM)”.

As to `C[C@@]1(F)[C@H](O)[C@@H](CO)O[C@H]1n1ccc(=O)[nH]c1=O` [GS-331007], in [7] (setting [12]), the “CL/F, elimination clearance, population estimate (%RSE)” value (from here on “CL/F, elimination clearance … (%RSE)”) was 390 (17.4) mL/h and the “VC/F, central volume of distribution, population estimate (%RSE)” value (shortened to “VC/F, central volume … (%RSE)”) is 2750 (17.0) mL.

As to `OC(c1cc(C(F)(F)F)nc2c(C(F)(F)F)cccc12)C1CCCCN1` (centres unmarked) [Mefloquine, mefloquine], the IC50 was 2.8 µM with SARS-CoV-2 in Vero cells [2] (setting [9]), 5.7 µM in the data set on SARS-CoV-2 in Vero cells [2] (setting [10]) and 13.2 µM in [4]. For the same molecule, the “Activity In Vitro … Vero Cells” value with SARS-CoV-2 in Vero cells [3] is “Yes (Potency EC50 or IC50 < 10 µM)”. Besides, the selectivity ratio in “in vitro” (With Pgp pump inhibitor) amounted to 6.2; in “in vitro” (Without Pgp pump inhibitor), 3.6. The “Activity In Vitro … Calu-3 Cells” value in data set [6] is “No (Potency EC50 or IC50 < 10 µM)”.

Turning to `CCNCc1cc(Nc2ccnc3cc(Cl)ccc23)ccc1O` [N-desethylamodiaquine], in [8], the “CL/F, elimination clearance … (%RSE)” value is on record as 804 (9.48%) mL/h; the “Q/F (Q1/F), inter-compartment clearance, population estimate (%RSE)” value was 229 (27.6%) mL/h; the “VC/F, central volume … (%RSE)” value was 1890 (42.2%) mL; the “VP/F, peripheral volume of distribution, population estimate (%RSE)” value is listed as 3050 (77.1%) mL.

As for `CC(=O)Oc1ccccc1C(=O)Nc1ncc([N+](=O)[O-])s1` [Nitazoxanide, nitazoxanide], the figures for the IC50 (in the data set with SARS-CoV-2 in Vero cells [2] (setting [9]); in the data set on SARS-CoV-2 in Vero cells [2] (setting [10]); in [4]) were 3.4 µM, 6.3 µM and 13.6 µM, respectively. Also, the “CL/F, elimination clearance … (%RSE)” value in data set [8] is reported as 626 (11.9) mL/h. Moreover, in data set [8], the “VC/F, central volume … (%RSE)” value is on record as 188 (38.6) mL. Further, in the data set on SARS-CoV-2 [5], the “Activity in SARS-CoV-2 Hamster Model” value is listed as “No”. The selectivity ratio in “in vitro” (With Pgp pump inhibitor) is more than 14.7; in “in vitro” (Without Pgp pump inhibitor), more than 7.9.

With `CC(=O)CCCCn1c(=O)c2c(ncn2C)n(C)c1=O` [Pentoxyfilline, pentoxyfilline], the IC50 (in the data set on SARS-CoV-2 in Vero cells [2] (setting [9]); with SARS-CoV-2 in Vero cells [2] (setting [10]); in [4]) was more than 50 µM each time. The “Activity In Vitro … Vero Cells” value with SARS-CoV-2 in Vero cells [3] was “No (Potency EC50 or IC50 < 10 µM)”. Also, the “Activity In Vitro … Calu-3 Cells” value in data set [6] is listed as “No (Potency EC50 or IC50 < 10 µM)”.

For `CCCN(CCC)S(=O)(=O)c1ccc(C(=O)O)cc1` [Probenecid, probenecid], the IC50 (with SARS-CoV-2 in Vero cells [2] (setting [9]); in the data set with SARS-CoV-2 in Vero cells [2] (setting [10]); in data set [4]) was more than 50 µM throughout. Further, the “Activity In Vitro … Vero Cells” value in the data set on SARS-CoV-2 in Vero cells [3] is “No (Potency EC50 or IC50 < 10 µM)”. Also, the EC50 is 0.0013 µM with SARS-CoV-2 [1] (host cell NHBE) and 0.75 µM in the data set with SARS-CoV-2 [1] (host cell Vero E6, ref 54). Further, the “Activity In Vitro … Calu-3 Cells” value in [6] is reported as “No (Potency EC50 or IC50 < 10 µM)”.

For the molecule `CC1(C)C(=O)N(c2ccc(C#N)c(C(F)(F)F)c2F)C(=S)N1c1ccc(CCCc2ncco2)nc1` [Proxalutamide, proxalutamide], the “Activity In Vitro … Vero Cells” value with SARS-CoV-2 in Vero cells [3] was “No (Potency EC50 or IC50 < 10 µM)”. Further, in the data set with SARS-CoV-2 in Vero cells [3] (T: toxicity observed), the “Selectivity Index (Vero cells), With Pgp pump inhibitor” value was less than 2.3. Also, the “Selectivity Index (Vero cells), Without Pgp pump inhibitor” value in the data set on SARS-CoV-2 in Vero cells [3] (T: toxicity observed) is less than 1.6. The IC50 with SARS-CoV-2 in Vero cells [3] (setting [13]) was 21.5 µM; in the data set with SARS-CoV-2 in Vero cells [3] (setting [11]), 30.3 µM; in data set [6], 14.5 µM. For the same molecule, the EC50 in the data set on SARS-CoV-2 [1] (host cell LNCaP Cells) is 0.097 µM. The “Activity In Vitro … Calu-3 Cells” value in [6] is “No (Potency EC50 or IC50 < 10 µM)”.

`CC(C)c1nc(CN(C)C(=O)N[C@H](C(=O)N[C@@H](Cc2ccccc2)C[C@H](O)[C@H](Cc2ccccc2)NC(=O)OCc2cncs2)C(C)C)cs1` [Ritonavir, ritonavir]: the EC50 with SARS-CoV-2 [1] (host cell Vero E6, ref 31) was more than 100 µM; in the data set with SARS-CoV-2 [1] (host cell Vero E6, ref 32), more than 50 µM; in the data set on SARS-CoV-2 [1] (host cell VeroE6/TMPRSS2) it was 8.6 µM.

With `O=C(Nc1ncc([N+](=O)[O-])s1)c1ccccc1O` [Tizoxanide, tizoxanide], the IC50 in the data set on SARS-CoV-2 in Vero cells [2] (setting [9]) was determined as 2.3 µM; in the data set with SARS-CoV-2 in Vero cells [2] (setting [10]), 7.2 µM; in data set [4] it was 14.3 µM. Moreover, the selectivity ratio in “in vitro” (With Pgp pump inhibitor, T: toxicity observed) is more than 21.7; in the data set “in vitro” (Without Pgp pump inhibitor, T: toxicity observed), more than 7.

On to `NCCC(Oc1ccc(C(F)(F)F)cc1)c1ccccc1` (centres unmarked) [norfluoxetine], for which the “FFP, fraction undergoing first-pass metabolism, population estimate (%RSE)” value in data set [7] (hamster 97 g) is given as 0.323 (11). In [7] (setting [12]), the “CL/F, elimination clearance … (%RSE)” value is 93.3 (6.3) mL/h and the “VC/F, central volume … (%RSE)” value is reported as 2740 (5.7) mL.

Turning to bemnifosbuvir, in the data set with SARS-CoV-2 in Vero cells [3], the “Activity In Vitro … Vero Cells” value was “No (Potency EC50 or IC50 < 10 µM)”. Moreover, the IC50 with SARS-CoV-2 in Vero cells [3] (setting [13]) is more than 25 µM; in the data set on SARS-CoV-2 in Vero cells [3] (setting [11]) it was more than 25 µM; in data set [6], more than 50 µM. In addition, the EC90 in the data set on SARS-CoV-2 [1] (host cell HAE, AT-511, free base of AT-527 used) is 0.47 µM. The “Activity in SARS-CoV-2 Hamster Model” value in the data set on SARS-CoV-2 [5] is “No ^d”; in the data set with SARS-CoV-2 [5] (listed as bemnifosbuvir (AT-527)) it was “no activity”. Besides, the “Activity In Vitro … Calu-3 Cells” value in data set [6] is “No (Potency EC50 or IC50 < 10 µM)”.

With ivermectin, the “Activity In Vitro … Vero Cells” value with SARS-CoV-2 in Vero cells [3] is listed as “Yes (Potency EC50 or IC50 < 10 µM)”. The IC50 in the data set with SARS-CoV-2 in Vero cells [3] (setting [13]) is 1.1 µM; in the data set with SARS-CoV-2 in Vero cells [3] (setting [11]), 4.3 µM; with SARS-CoV-2 [1] (Vero-hSLAM cells, read-out: IC50, medium) it was 2.8 µM; in data set [6] it was 8.9 µM. The EC50 in the data set with SARS-CoV-2 [1] (host cell Vero E6, ref 22) is 1.7 µM; in the data set on SARS-CoV-2 [1] (host cell Vero E6, ref 38) it was 2.3 µM; in the data set with SARS-CoV-2 [1] (host cell not given), 2 µM. Besides, the “Activity in SARS-CoV-2 Hamster Model” value with SARS-CoV-2 [5] is “No”. The “Effect of SC administration on F” value in data set [7] (compared to PO administration) was 0.656 (15.7). In data set [7] (compared to PO administration), the “Effect of SC administration on KA” value was 2.05 (50.0). In data set [7] (compared to PO administration), the “Effect of SC administration on MTT” value is given as -0.85 (5.61). In addition, the “MTT, mean transit time, population estimate (%RSE)” value in data set [7] (hamster 120 g) was 0.478 (7.42) h. Besides, in data set [7] (setting [12]), the “CL/F, elimination clearance … (%RSE)” value is listed as 13.3 (0.160) mL/h. In addition, the “KA, absorption rate constant, population estimate (%RSE)” value in data set [7] (setting [12]) was 0.531 (8.35) h-1. Moreover, in data set [6], the “Activity In Vitro … Calu-3 Cells” value is reported as “Yes (Potency EC50 or IC50 < 10 µM)”.
